Data taken from EPA's ToxRefDB 2.

Columns and labels:
rabbit [1] = details: Prenatal developmental toxicity study, new zealand white, Oral, Gavage/Intubation, dose end: 19 GD
rat [2] = details: Multigenerational reproductive toxicity study, other, Oral, Water, dose end: 2 generation
rat [3] = details: Multigenerational reproductive toxicity study, sprague dawley, Oral, Water, dose end: 2 generation
rabbit [4] = details: Prenatal developmental toxicity study, new zealand white, Oral, Gavage/Intubation, dose end: 27 GD, group: maternal
rat [5] = details: Combined chronic toxicity/carcinogenicity, sprague dawley, Oral, Water, dose end: 104 week, group: systemic
dog = details: Sub-acute repeat dose toxicity, beagle, Oral, Water, dose end: 28 day, group: systemic
[6] = group: developmental, developmental / developmental malformation / aortic arch / dilated + developmental / developmental malformation / bone / [other] + …
[7] = group: maternal, systemic / in life observation / body weight / body weight gain + systemic / in life observation / clinical signs / defecation + systemic / …
[8] = group: offspring, systemic / in life observation / body weight / offspring (pup) weight + systemic / organ weight / kidney / absolute + systemic / organ …
[9] = group: parental, systemic / in life observation / water consumption / water consumption
[10] = group: parental, systemic / in life observation / water consumption / water consumption + systemic / in life observation / body weight / body weight + …
[11] = group: reproductive, reproductive / reproductive performance / fertility / fertility
[12] = group: offspring, reproductive / offspring survival early / dead fetuses / dead fetuses + reproductive / offspring survival early / live fetuses / live …
[13] = group: parental, systemic / in life observation / food consumption / food consumption + systemic / in life observation / water consumption / water …
[14] = group: reproductive, reproductive / reproductive performance / dystocia / dystocia
[15] = group: reproductive, reproductive / reproductive performance / dystocia / dystocia + reproductive / reproductive performance / postimplantation loss / …
[16] = systemic / in life observation / body weight / body weight + systemic / in life observation / food consumption / food consumption + systemic…
[17] = systemic / in life observation / water consumption / water consumption
[18] = systemic / pathology microscopic / nose / inflammation
[19] = systemic / pathology microscopic / nose / inflammation + systemic / pathology microscopic / stomach / hypertrophy

O=[N+]([O-])C(Br)(CO)CO [Bronopol]
LEL (rabbit [1]; [6]): 80 mg/kg/day | LOAEL (rabbit [1]; [6]): 80 mg/kg/day | NEL (rabbit [1]; [6]): 40 mg/kg/day | NOAEL (rabbit [1]; [6]): 40 mg/kg/day | LEL (rabbit [1]; [7]): 80 mg/kg/day | LOAEL (rabbit [1]; [7]): 80 mg/kg/day | NEL (rabbit [1]; [7]): 40 mg/kg/day | NOAEL (rabbit [1]; [7]): 40 mg/kg/day | NEL (rat [2]; group: offspring, systemic / in life observation / body weight / offspring (pup) weight): 70 mg/kg/day | LEL (rat [2]; [8]): 200 mg/kg/day | LOAEL (rat [2]; [8]): > 200 mg/kg/day | NOAEL (rat [2]; [8]): ≥ 200 mg/kg/day | LEL (rat [2]; [9]): 25 mg/kg/day | NEL (rat [2]; [9]): < 25 mg/kg/day | LOAEL (rat [2]; [10]): > 200 mg/kg/day | NOAEL (rat [2]; [10]): ≥ 200 mg/kg/day | LEL (rat [2]; [11]): 200 mg/kg/day | LOAEL (rat [2]; [11]): > 200 mg/kg/day | NEL (rat [2]; [11]): 70 mg/kg/day | NOAEL (rat [2]; [11]): ≥ 200 mg/kg/day | LEL (rat [3]; [12]): 150 mg/kg/day | LOAEL (rat [3]; [12]): 150 mg/kg/day | NEL (rat [3]; [12]): 50 mg/kg/day | NOAEL (rat [3]; [12]): 50 mg/kg/day | LEL (rat [3]; [13]): 50 mg/kg/day | LOAEL (rat [3]; [13]): 50 mg/kg/day | NEL (rat [3]; [13]): 10 mg/kg/day | NOAEL (rat [3]; [13]): 10 mg/kg/day | NEL (rat [3]; [14]): 50 mg/kg/day | NOAEL (rat [3]; [14]): 50 mg/kg/day | LEL (rat [3]; [15]): 150 mg/kg/day | LOAEL (rat [3]; [15]): 150 mg/kg/day | LOAEL (rabbit [4]; systemic / in life observation / body weight / body weight + systemic / in life observation / food consumption / food consumption): 40 mg/kg/day | LEL (rabbit [4]; [16]): 40 mg/kg/day | NEL (rabbit [4]; [16]): 10 mg/kg/day | NOAEL (rabbit [4]; [16]): 10 mg/kg/day | LEL (rat [5]; [17]): 10 mg/kg/day | NEL (rat [5]; [17]): < 10 mg/kg/day | LOAEL (rat [5]; systemic / in life observation / water consumption / water consumption + systemic / in life observation / body weight / body weight gain + …): 40 mg/kg/day | NOAEL (rat [5]; systemic / in life observation / water consumption / water consumption + systemic / pathology microscopic / stomach / squamous cell …): 10 mg/kg/day | LEL (dog; [18]): 4.1 mg/kg/day | NEL (dog; [18]): < 4.1 mg/kg/day | LOAEL (dog; [19]): > 32.6 mg/kg/day | NOAEL (dog; [19]): ≥ 32.6 mg/kg/day
